From EPA's ToxRefDB 2

Columns and labels:
[1] = system: rat; conditions: Subchronic oral toxicity in rodents, fischer, Feed, dose end: 13 week, group: systemic
[2] = system: rat; conditions: Multigenerational reproductive toxicity study, other, Oral, Feed, dose end: 2 generation
[3] = system: dog; conditions: Chronic toxicity, beagle, Oral, Capsule, dose end: 52 week, group: systemic
[4] = system: mouse; conditions: Carcinogenicity; cd1; Oral; Feed; dose end: 78 week; group: systemic; systemic / in life observation / clinical signs / alopecia + systemic / in life observation / mortality / mortality + systemic / pathology …
[5] = system: rat; conditions: Subchronic oral toxicity in rodents, wistar, Feed, dose end: 90 day, group: systemic
[6] = system: rat; conditions: Prenatal developmental toxicity study, wistar, Oral, Gavage/Intubation, dose end: 16 GD
[7] = system: rabbit; conditions: Prenatal developmental toxicity study, new zealand white, Oral, Gavage/Intubation, dose end: 20 GD
[8] = system: mouse; conditions: Carcinogenicity, cd1, Oral, Feed, dose end: 108 week, group: systemic
[9] = system: dog; conditions: Chronic toxicity; beagle; Oral; Feed; dose end: 52 week; group: systemic; systemic / hematology / blood clotting / blood clotting - prothrombin time + systemic / hematology / erythrocyte (rbc) count differential / …
[10] = system: mouse; conditions: Subchronic oral toxicity in rodents, cd1, Feed, dose end: 90 day, group: systemic
[11] = system: rabbit; conditions: Prenatal developmental toxicity study, new zealand white, Oral, Gavage/Intubation, dose end: 28 GD
[12] = system: rat; conditions: Subchronic oral toxicity in rodents, sprague dawley, Feed, dose end: 13 week, group: systemic
[13] = system: rat; conditions: Multigenerational reproductive toxicity study, other, Oral, Feed, dose end: 2 generation; remark: listed apart in the source
[14] = system: rat; conditions: Combined chronic toxicity/carcinogenicity; sprague dawley; Oral; Feed; dose end: 104 week; group: systemic; systemic / hematology / blood clotting / blood clotting - thromboplastin time + systemic / hematology / platelet / platelet + systemic / …
[15] = system: rat; conditions: Subchronic inhalation toxicity, wistar, Whole-Body, dose end: 78 day, group: systemic, systemic / organ weight / kidney / nos + systemic / organ weight / liver / nos + systemic / organ weight / ovary / nos + systemic / …
[16] = system: rat; conditions: Prenatal developmental toxicity study, sprague dawley, Oral, Gavage/Intubation, dose end: 17 GD
[17] = system: rat; conditions: Subchronic oral toxicity in rodents, Feed, dose end: 13 week
[18] = system: rat; conditions: Combined chronic toxicity/carcinogenicity, sprague dawley, Oral, Feed, dose end: 103 week
[19] = system: dog; conditions: Chronic toxicity, beagle, Oral, Feed, dose end: 104 week
[20] = system: rat; conditions: Prenatal developmental toxicity study; sprague dawley; Oral; Gavage/Intubation; dose end: 15 GD; group: maternal; reproductive / reproductive performance / postimplantation loss / postimplantation loss + reproductive / reproductive performance / …
[21] = systemic / urinalysis / ph / ph
[22] = group: offspring, systemic / in life observation / body weight / offspring (pup) weight
[23] = group: reproductive, reproductive / offspring survival early / dead fetuses / dead fetuses
[24] = systemic / pathology microscopic / parathyroid gland / cyst + systemic / pathology microscopic / pituitary gland / cyst
[25] = systemic / organ weight / heart / absolute + systemic / organ weight / heart / relative to body weight + systemic / clinical chemistry / …
[26] = group: developmental, developmental / developmental malformation / bone / delayed ossification + developmental / developmental malformation / bone / unossified + …
[27] = group: maternal, systemic / in life observation / body weight / body weight gain + systemic / in life observation / food consumption / food consumption
[28] = group: developmental, developmental / developmental malformation / bone / delayed ossification + developmental / developmental malformation / bone / short …
[29] = group: maternal, systemic / in life observation / body weight / body weight loss + systemic / in life observation / clinical signs / inappetence + systemic…
[30] = systemic / in life observation / body weight / body weight gain + systemic / in life observation / mortality / mortality
[31] = systemic / in life observation / body weight / body weight gain + systemic / in life observation / mortality / mortality + systemic / …
[32] = systemic / hematology / erythrocyte (rbc) count differential / erythrocyte (rbc) + systemic / hematology / hematocrit (hct) / hematocrit (…
[33] = group: developmental, systemic / in life observation / body weight / fetal weight
[34] = group: maternal, reproductive / reproductive performance / aborted / aborted + reproductive / reproductive performance / postimplantation loss / …
[35] = systemic / clinical chemistry / alanine aminotransferase (alt/sgpt) / alanine aminotransferase (alt/sgpt) + systemic / clinical chemistry / …
[36] = group: offspring, systemic / organ weight / liver / relative to body weight
[37] = group: offspring, systemic / organ weight / liver / relative to body weight + systemic / in life observation / body weight / offspring (pup) weight + systemic…
[38] = group: parental, systemic / organ weight / thyroid gland / absolute
[39] = group: developmental, systemic / in life observation / clinical signs / mobility + systemic / in life observation / clinical signs / rearing activity + …
[40] = group: maternal, systemic / in life observation / clinical signs / salivation
[41] = group: cholinesterase, cholinesterase / cholinesterase / cholinesterase / whole blood cholinesterase (che) + cholinesterase / cholinesterase / cholinesterase / …
[42] = group: systemic, systemic / in life observation / food consumption / food consumption
[43] = group: cholinesterase, cholinesterase / cholinesterase / cholinesterase / brain cholinesterase (che)
[44] = group: cholinesterase, cholinesterase / cholinesterase / cholinesterase / brain cholinesterase (che) + cholinesterase / cholinesterase / cholinesterase / plasma …
[45] = group: systemic, systemic / pathology microscopic / eye / cataract
[46] = group: cholinesterase, cholinesterase / cholinesterase / cholinesterase / brain cholinesterase (che) + cholinesterase / cholinesterase / cholinesterase / whole …
[47] = group: systemic, systemic / in life observation / water consumption / water consumption

Cc1ccc(-c2c(Cl)nc(C#N)n2S(=O)(=O)N(C)C)cc1 [Cyazofamid]
LOAEL ([1]; systemic / pathology microscopic / kidney / basophilia + systemic / urinalysis / protein / protein): 294 mg/kg/day
NOAEL ([1]; systemic / pathology microscopic / kidney / basophilia + systemic / urinalysis / protein / protein + systemic / urinalysis / ph / ph + …): 29.5 mg/kg/day
LEL [1, 21]: 0.6 mg/kg/day
NEL [1, 21]: < 0.6 mg/kg/day
LEL [2, 22]: 1000 mg/kg/day
LOAEL [2, 22]: > 1000 mg/kg/day
NEL [2, 22]: 100 mg/kg/day
NOAEL [2, 22]: ≥ 1000 mg/kg/day
LEL [2, 23]: 1000 mg/kg/day
LOAEL [2, 23]: > 1000 mg/kg/day
NEL [2, 23]: 100 mg/kg/day
NOAEL [2, 23]: ≥ 1000 mg/kg/day
LOAEL [3, 24]: 1000 mg/kg/day
NEL [3, 24]: 40 mg/kg/day
NOAEL [3, 24]: 200 mg/kg/day
LEL ([3]; systemic / pathology microscopic / pituitary gland / cyst): 200 mg/kg/day
LEL [4]: 985 mg/kg/day
LOAEL [4]: 985 mg/kg/day
NEL [4]: 94.8 mg/kg/day
NOAEL [4]: 94.8 mg/kg/day

CCCCOC(=O)[C@@H](C)Oc1ccc(Oc2ccc(C(F)(F)F)cn2)cc1 [Fluazifop-P-butyl]
LEL [5, 25]: 0.5 mg/kg/day
NEL [5, 25]: < 0.5 mg/kg/day
LOAEL ([5]; systemic / organ weight / spleen / absolute + systemic / organ weight / spleen / relative to body weight + systemic / hematology / …): 5 mg/kg/day
NOAEL ([5]; systemic / organ weight / spleen / absolute + systemic / organ weight / spleen / relative to body weight + systemic / organ weight / brain…): 0.5 mg/kg/day
LEL [6, 26]: 20 mg/kg/day
LOAEL [6, 26]: 20 mg/kg/day
NEL [6, 26]: 1 mg/kg/day
NOAEL [6, 26]: 1 mg/kg/day
LOAEL ([6]; group: maternal, systemic / in life observation / body weight / body weight gain): 300 mg/kg/day
LEL [6, 27]: 300 mg/kg/day
NEL [6, 27]: 20 mg/kg/day
NOAEL [6, 27]: 20 mg/kg/day
LEL [7, 28]: 50 mg/kg/day
LOAEL [7, 28]: 50 mg/kg/day
NEL [7, 28]: 10 mg/kg/day
NOAEL [7, 28]: 10 mg/kg/day
LEL [7, 29]: 50 mg/kg/day
LOAEL [7, 29]: 50 mg/kg/day
NEL [7, 29]: 10 mg/kg/day
NOAEL [7, 29]: 10 mg/kg/day

CCOc1ccc(C(C)(C)COCc2cccc(Oc3ccccc3)c2)cc1 [Etofenprox]
LEL [8, 30]: 10.4 mg/kg/day
LOAEL [8, 30]: 10.4 mg/kg/day
NEL [8, 31]: 3.1 mg/kg/day
NOAEL [8, 31]: 3.1 mg/kg/day
LEL [9]: 339 mg/kg/day
LOAEL [9]: 339 mg/kg/day
NEL [9]: 32.2 mg/kg/day
NOAEL [9]: 32.2 mg/kg/day
LOAEL [10, 32]: 375 mg/kg/day
NEL [10, 32]: 6.1 mg/kg/day
NOAEL [10, 32]: 60 mg/kg/day
LEL ([10]; systemic / hematology / mean corpuscular (cell) volume (mcv) / mean corpuscular (cell) volume (mcv) + systemic / hematology / monocytes / …): 60 mg/kg/day
LEL [11, 33]: 300 mg/kg/day
LOAEL [11, 33]: 300 mg/kg/day
NEL [11, 33]: 100 mg/kg/day
NOAEL [11, 33]: 100 mg/kg/day
LEL [11, 34]: 300 mg/kg/day
LOAEL [11, 34]: 300 mg/kg/day
NEL [11, 34]: 100 mg/kg/day
NOAEL [11, 34]: 100 mg/kg/day
LOAEL [12, 35]: 120 mg/kg/day
NOAEL [12, 35]: 20 mg/kg/day
LEL ([12]; systemic / clinical chemistry / glucose / glucose): 23 mg/kg/day
NEL ([12]; systemic / clinical chemistry / glucose / glucose + systemic / clinical chemistry / alanine aminotransferase (alt/sgpt) / alanine …): 3.8 mg/kg/day
LEL [13, 36]: 35 mg/kg/day
LOAEL [13, 36]: 35 mg/kg/day
NEL [13, 37]: 5 mg/kg/day
NOAEL [13, 37]: 5 mg/kg/day
LOAEL ([13]; group: parental, systemic / organ weight / liver / relative to body weight): 35 mg/kg/day
NOAEL ([13]; group: parental, systemic / organ weight / liver / relative to body weight + systemic / in life observation / clinical signs / discharge on cageboard + …): 5 mg/kg/day
LEL [13, 38]: 5 mg/kg/day
NEL [13, 38]: < 5 mg/kg/day
LEL [14]: 1.1 mg/kg/day
LOAEL [14]: 25.5 mg/kg/day
NEL [14]: < 1.1 mg/kg/day
NOAEL [14]: 3.7 mg/kg/day
LEL [15]: 52.3 mg/kg/day
LOAEL [15]: 52.3 mg/kg/day
NEL [15]: 10.6 mg/kg/day
NOAEL [15]: 10.6 mg/kg/day
LEL ([16]; group: developmental, systemic / in life observation / clinical signs / mobility + systemic / in life observation / clinical signs / rearing activity): 250 mg/kg/day
LOAEL [16, 39]: 5000 mg/kg/day
NEL [16, 39]: 12.5 mg/kg/day
NOAEL [16, 39]: 250 mg/kg/day
LOAEL ([16]; group: maternal, systemic / in life observation / clinical signs / anogenital staining + systemic / in life observation / clinical signs / scabbing): 5000 mg/kg/day
LEL [16, 40]: 12.5 mg/kg/day
NEL [16, 40]: < 12.5 mg/kg/day
NOAEL ([16]; group: maternal, systemic / in life observation / clinical signs / salivation + systemic / in life observation / clinical signs / anogenital staining + …): 250 mg/kg/day

CNC(=O)Oc1cccc2c1OC(C)(C)O2 [Bendiocarb]
NEL ([17]; group: cholinesterase, cholinesterase / cholinesterase / cholinesterase / plasma cholinesterase (che) + cholinesterase / cholinesterase / cholinesterase / whole …): 0.5 mg/kg/day
LEL ([17]; group: cholinesterase, cholinesterase / cholinesterase / cholinesterase / whole blood cholinesterase (che)): 2.5 mg/kg/day
LOAEL [17, 41]: > 12.5 mg/kg/day
NOAEL [17, 41]: ≥ 12.5 mg/kg/day
LEL [17, 42]: 12.5 mg/kg/day
LOAEL [17, 42]: 12.5 mg/kg/day
NEL [17, 42]: 2.5 mg/kg/day
NOAEL [17, 42]: 2.5 mg/kg/day
LEL [18, 43]: 0.86 mg/kg/day
LOAEL [18, 43]: 0.86 mg/kg/day
NEL [18, 44]: 0.42 mg/kg/day
NOAEL [18, 44]: 0.42 mg/kg/day
LEL [18, 45]: 0.72 mg/kg/day
LOAEL [18, 45]: 0.72 mg/kg/day
NEL [18, 45]: 0.35 mg/kg/day
NOAEL [18, 45]: 0.35 mg/kg/day
LEL [19, 46]: 15 mg/kg/day
LOAEL [19, 46]: 15 mg/kg/day
NEL [19, 46]: 3 mg/kg/day
NOAEL [19, 46]: 3 mg/kg/day
LEL [19, 47]: 3 mg/kg/day
LOAEL [19, 47]: > 15 mg/kg/day
NEL [19, 47]: 0.7 mg/kg/day
NOAEL [19, 47]: ≥ 15 mg/kg/day
LEL [20]: 10 mg/kg/day
LOAEL [20]: 10 mg/kg/day
NEL [20]: 2 mg/kg/day
NOAEL [20]: 2 mg/kg/day
